Results reported in patent US12377112B2, “Methods of treating neurocognitive disorders, chronic pain and reducing inflammation” (priority 2019, dated 2025).

Test system: healthy subjects
Assay: Phase 1 study: Life Changes Inventory (LCI)
Format: in vivo, human
Source text: In some embodiments, the Life Changes Inventory (LCI) questionnaire is utilized to evaluate the safety and/or efficacy of psilocybin. The LCI is designed as a questionnaire to investigate those variables present in the day-to-day experience of adults that might relate either to stability or decline of intellectual ability.
The following list of outcome measures are non-exhaustive: • a. The short-term change from Baseline (Day −1 [Visit 2]) to Day 7 (Visit 5) in cognitive measures of attention, spatial and working memory and executive function was measured by a composite score of the CANTAB Panel (Spatial Working Memory [SWM], Rapid Visual Information Processing [RVP], Paired Associates Learning [PAL]). • b. The short-term change from Baseline (Day −1 [Visit 2]) to Day 7 (Visit 5) in Social Cognition Panel scales (Pictorial Empathy Test [PET], Reading the Mind in the eyes Test [RMET], Toronto Empathy Questionnaire [TEQ], Social Value Orientation [SVO], Scale of Social Responsibility [SSR]). • c. The change from Baseline (Day −1 [Visit 2]) to Day 28 (Visit 6) in cognitive measures of attention, spatial and working memory and executive function as measured by a composite score of the CANTAB Panel (SWM, RVP, PAL). • d. The long-term change from Baseline (Day −1 [Visit 2]) to Day 84 (Visit 7) in Social Cognition Panel scales (PET, RMET, TEQ, SVO, SSR). • e. Dose-related differences between cognitive effects of psilocybin at Baseline (Day −1 [Visit 2]), Day 7 (Visit 5) and Day 28 (Visit 6), as measured by a composite score of the CANTAB Panel (SWM, RVP, PAL). • f. Dose-related differences between psychological effects of psilocybin at Baseline (Day −1 [Visit 2]), Day 7 (Visit 5) and Day 84 (Visit 7), as measured by Social Cognition Panel scales (PET, RMET, TEQ, SVO, SSR). • g. Differences in cognitive effects of psilocybin between psilocybin-naïve and experienced subjects at Baseline (Day −1 [Visit 2]), Day 7 (Visit 5) and Day 28 (Visit 6), as measured by a composite score of the CANTAB Panel (SWM, RVP, PAL). • h. Differences in Positive and Negative Affect Schedule (PANAS) after study drug administration on Day 0 (Visit 3). • i. Differences between psilocybin and placebo in the Emotion Recognition Test (ERT), Intra-Extra Dimensional Set Shift (IED), One Touch Stockings (OTS), Verbal Fluency and Digit Span Forward at Day 7 (Visit 5). • j. A composite score of the CANTAB Panel, including the following tests: • i. Spatial Working Memory (SWM) (performed at Visit 2, Visit 5, and Visit 6). • ii. Rapid Visual Information Processing (RVP) (performed at Visit 2, Visit 5, and Visit 6). • iii. Paired Associates Learning (PAL) (performed at Visit 2, Visit 5, and Visit 6). • k. Cognitive Flexibility Panel • i. Emotion Recognition Task (ERT) (performed at Visit 5). • ii. Intra-Extra Dimensional Set Shift (IED) (performed at Visit 5). • iii. One Touch Stockings (OTS) (performed at Visit 5). • iv. Verbal Fluency (performed at Visit 5). • v. Digit Span Forward (performed at Visit 5). • l. Five Dimension Altered States of Consciousness questionnaire (5D-ASC) (performed at Visit 3). • m. PANAS (performed at Visit 2 and Visit 3). • n. NEO-Five Factor Inventory (NEO-FFI) (performed at Visit 2, Visit 5, and Visit 7). • o. Symptom Checklist-90 item (SCL-90) (performed at Visit 2, Visit 5, and Visit 7). • p. Life Changes Inventory (LCI): The LCI measures changes in attitudes and values after near-death experiences often used to evaluate personal transformation following spiritually oriented experiences and practices. (performed at Visit 5 and Visit 7). • q. Social Cognition Panel scales • i. Pictorial Empathy Test (PET) (performed at Visit 2, Visit 5, and Visit 7). • ii. Reading the Mind in the Eyes Test (RMET) (performed at Visit 2, Visit 5, and Visit 7). • iii. Social Value Orientation (SVO) (performed at Visit 2, Visit 5, and Visit 7). • iv. Toronto Empathy Questionnaire (TEQ) (performed at Visit 2, Visit 5, and Visit 7). • v. […]

[1] = Psilocybin 10 mg - Placebo, Day 7
[2] = Psilocybin 10 mg - Placebo, Day 84
[3] = Psilocybin 25 mg - Placebo, Day 7
[4] = Psilocybin 25 mg - Placebo, Day 84
[5] = Psilocybin (25 mg - 10 mg), Day 7
[6] = Psilocybin (25 mg - 10 mg), Day 84

CN(C)CCc1c[nH]c2cccc(OP(=O)(O)O)c12 [Psilocybin, psilocybin]
0.2: LCI appreciation of death, LS mean difference [2] | LCI concern social, LS mean difference [3] | LCI spirituality, LS mean difference [3] | LCI appreciation of death, LS mean difference [4]
0.6: LCI appreciation for life, LS mean difference [1] | LCI appreciation for life, LS mean difference [2]
−0.1: LCI religiousness, LS mean difference [1] | LCI concern for worldly achievement, LS mean difference [3] | LCI concern for worldly achievement, LS mean difference [4] | LCI self-acceptance, LS mean difference [5] | LCI spirituality, LS mean difference [5] | LCI-absolute change, LS mean difference [5] | LCI appreciation for life, LS mean difference [6]
0.5: LCI self-acceptance, LS mean difference [2] | LCI appreciation for life, LS mean difference [3] | LCI self-acceptance, LS mean difference [3] | LCI appreciation for life, LS mean difference [4] | LCI concern for others, LS mean difference [4] | LCI self-acceptance, LS mean difference [4]
−0.0: LCI religiousness, LS mean difference [2] | LCI appreciation of death, LS mean difference [5] | LCI quest for meaning, LS mean difference [6] | LCI spirituality, LS mean difference [6] | LCI-absolute change, LS mean difference [6]
0.0: LCI religiousness, LS mean difference [3] | LCI religiousness, LS mean difference [4] | LCI concern for others, LS mean difference [5] | LCI quest for meaning, LS mean difference [5] | LCI appreciation of death, LS mean difference [6] | LCI concern social, LS mean difference [6] | LCI self-acceptance, LS mean difference [6]
−0.2: LCI concern for worldly achievement, LS mean difference [1] | LCI concern for worldly achievement, LS mean difference [2] | LCI appreciation for life, LS mean difference [5]
0.1: LCI appreciation of death, LS mean difference [1] | LCI concern social, LS mean difference [1] | LCI concern social, LS mean difference [2] | LCI appreciation of death, LS mean difference [3] | LCI concern social, LS mean difference [4] | LCI concern for worldly achievement, LS mean difference [5] | LCI concern social, LS mean difference [5] | LCI religiousness, LS mean difference [5] | LCI concern for others, LS mean difference [6] | LCI concern for worldly achievement, LS mean difference [6] | LCI religiousness, LS mean difference [6]
0.3: LCI spirituality, LS mean difference [1] | LCI-absolute change, LS mean difference [3]
0.4: LCI concern for others, LS mean difference [1] | LCI quest for meaning, LS mean difference [1] | LCI-absolute change, LS mean difference [1] | LCI concern for others, LS mean difference [2] | LCI quest for meaning, LS mean difference [2] | LCI spirituality, LS mean difference [2] | LCI-absolute change, LS mean difference [2] | LCI concern for others, LS mean difference [3] | LCI quest for meaning, LS mean difference [3] | LCI quest for meaning, LS mean difference [4] | LCI spirituality, LS mean difference [4] | LCI-absolute change, LS mean difference [4]
0.7: LCI self-acceptance, LS mean difference [1]
